Data on 5 molecules can be found in the NIST ThermoML archive (doi:10.1016/j.fluid.2012.07.032).

For series [1] the following is noted: 101.33 kPa, Liquid, Vibrating tube method.
Series [2] in a line: refractive index (Na D-line) (dimensionless). As to conditions: 101.33 kPa, Liquid, Standard Abbe refractometry.

Structures are written as SMILES. ± gives the expanded uncertainty stated by the source.

`O=Cc1ccco1` [2-furaldehyde]: the values for the mass density in series [1] (288.2 K), in series [1] (303.2 K) and in series [1] (318.2 K) were 1165.24 ± 0.37 kg/m3, 1149.77 ± 0.35 kg/m3 and 1133.83 ± 0.34 kg/m3, respectively. Besides, the refractive index in series [2] (288.2 K) is 1.528 ± 0.0004; in series [2] (303.2 K), 1.5206 ± 0.0004; in series [2] (318.2 K) it was 1.5133 ± 0.0004.

As to `CCCCO` [butan-1-ol], the figures for the mass density in series [1] (288.2 K), in series [1] (303.2 K) and in series [1] (318.2 K) were 813.82 ± 0.14 kg/m3, 802.407 ± 0.14 kg/m3 and 790.724 ± 0.15 kg/m3, respectively. Besides, the refractive index turned out to be 1.4013 ± 0.0004 in series [2] (288.2 K), 1.3952 ± 0.0004 in series [2] (303.2 K) and 1.3892 ± 0.0004 in series [2] (318.2 K).

For the molecule `CCOC(C)=O` [ethyl acetate], the mass density is on record as 906.89 ± 0.11 kg/m3 in series [1] (288.2 K), 888.196 ± 0.12 kg/m3 in series [1] (303.2 K) and 869.522 ± 0.12 kg/m3 in series [1] (318.2 K). Also, the values for the refractive index in series [2] (288.2 K), in series [2] (303.2 K) and in series [2] (318.2 K) were 1.3749 ± 0.0004, 1.3672 ± 0.0004 and 1.3594 ± 0.0004, respectively.

Take `CCCOC(C)=O` [propyl ethanoate]: the mass density in series [1] (288.2 K) was 894.325 ± 0.082 kg/m3; in series [1] (303.2 K), 877.529 ± 0.089 kg/m3; in series [1] (318.2 K) it was 860.512 ± 0.095 kg/m3. Besides, the results for the refractive index in series [2] (288.2 K), in series [2] (303.2 K) and in series [2] (318.2 K) were 1.3866 ± 0.0004, 1.3792 ± 0.0004 and 1.3717 ± 0.0004, respectively.

Regarding `O` [water], the refractive index in series [2] (288.2 K) was 1.3334 ± 0.0004; in series [2] (303.2 K), 1.3319 ± 0.0004; in series [2] (318.2 K) it was 1.3298 ± 0.0004.
